Patent publication US20070049578A1, “Cinnamamide compounds as metabotropic glutamate receptor antagonists” (AstraZeneca AB, priority 2005, published 2007)

Molecular target: T1, human mGluR5d (Homo sapiens, UniProt P41594)
T1 construct: expressed in transfected cells; host or cells: GHEK (human embryonic kidney cells expressing glutamate transporter) for the IP3 assay
Assay: Functional assessment of mGluR5 antagonism in cell lines expressing mGluR5d (FLIPR [Ca2+]i mobilization and/or IP3 turnover; not stated which assay gave the values)
Type: cell-based
Conditions: assays described herein (FLIPR / IP3), cells expressing human mGluR5d
From the text: (§1) The pharmacological properties of the compounds of the invention can be analyzed using standard assays for functional activity. Examples of glutamate receptor assays are well known in the art as described in for example Aramori et al., Neuron 8:757 (1992), Tanabe et al., Neuron 8:169 (1992), Miller et al., J. Neuroscience 15: 6103 (1995), Balazs, et al., J. Neurochemistry 69:151 (1997). The methodology described in these publications is incorporated herein by reference. Conveniently, the compounds of the invention can be studied by means of an assay that measures the mobilization of intracellular calcium, [Ca^2+]i in cells expressing mGluR5.
Intracellular calcium mobilization was measured by detecting changes in fluorescence of cells loaded with the fluorescent indicator fluo-3. Fluorescent signals were measured using the FLIPR system (Molecular Devices). A two addition experiment was used that could detect compounds that either activate or antagonize the receptor.
For FLIPR analysis, cells expressing human mGluR5d were seeded on collagen coated clear bottom 96-well plates with black sides and analysis of [Ca^2+]i mobilization was done 24 hours after seeding.
FLIPR experiments were done using a laser setting of 0.800 W and a 0.4 second CCD camera shutter speed. Each FLIPR experiment was initiated with 160 μL of buffer present in each well of the cell plate. After each addition of the compound, the fluorescence signal was sampled 50 times at 1 second intervals followed by 3 samples at 5 second intervals. Responses were measured as the peak height of the response within the sample period.
EC50 and IC50 determinations were made from data obtained from 8-point concentration response curves (CRC) performed in duplicate. Agonist CRC were generated by scaling all responses to the maximal response observed for the plate. Antagonist block of the agonist challenge was normalized to the average response of the agonist challenge in 14 control wells on the same plate.
We have validated a secondary functional assay for mGluR5d based on Inositol Phosphate (IP3) turnover. IP3 accumulation is measured as an index of receptor mediated phospholipase C turnover. GHEK cells stably expressing the human mGluR5d receptors were incubated with [3H] myo-inositol overnight, washed three times in HEPES buffered saline and pre-incubated for 10 minutes with 10 mM LiCl. Compounds (agonists) were added and incubated for 30 minutes at 37° C. Antagonist activity was determined by pre-incubating test compounds for 15 minutes, then incubating in the presence of glutamate (80 μM) or DHPG (30 μM) for 30 minutes. Reactions were terminated by the addition of perchloric acid (5%). Samples were collected and neutralized, and inositol phosphates were separated using Gravity-Fed Ion-Exchange Columns.
Functional Assessment of mGluR5 Antagonism in Cell Lines Expressing mGluR5D
as §1, with “The” for “The pharmacological”, “pharmacological” for “functional”, “Conveniently, the compounds of the invention can be studied by means of an assay that measures the mobilization of intracellular calcium, [Ca^2+]i in cells expressing mGluR5.” left out

T1 sequence (P41594 21-942 isoform P41594-3 limits assumed): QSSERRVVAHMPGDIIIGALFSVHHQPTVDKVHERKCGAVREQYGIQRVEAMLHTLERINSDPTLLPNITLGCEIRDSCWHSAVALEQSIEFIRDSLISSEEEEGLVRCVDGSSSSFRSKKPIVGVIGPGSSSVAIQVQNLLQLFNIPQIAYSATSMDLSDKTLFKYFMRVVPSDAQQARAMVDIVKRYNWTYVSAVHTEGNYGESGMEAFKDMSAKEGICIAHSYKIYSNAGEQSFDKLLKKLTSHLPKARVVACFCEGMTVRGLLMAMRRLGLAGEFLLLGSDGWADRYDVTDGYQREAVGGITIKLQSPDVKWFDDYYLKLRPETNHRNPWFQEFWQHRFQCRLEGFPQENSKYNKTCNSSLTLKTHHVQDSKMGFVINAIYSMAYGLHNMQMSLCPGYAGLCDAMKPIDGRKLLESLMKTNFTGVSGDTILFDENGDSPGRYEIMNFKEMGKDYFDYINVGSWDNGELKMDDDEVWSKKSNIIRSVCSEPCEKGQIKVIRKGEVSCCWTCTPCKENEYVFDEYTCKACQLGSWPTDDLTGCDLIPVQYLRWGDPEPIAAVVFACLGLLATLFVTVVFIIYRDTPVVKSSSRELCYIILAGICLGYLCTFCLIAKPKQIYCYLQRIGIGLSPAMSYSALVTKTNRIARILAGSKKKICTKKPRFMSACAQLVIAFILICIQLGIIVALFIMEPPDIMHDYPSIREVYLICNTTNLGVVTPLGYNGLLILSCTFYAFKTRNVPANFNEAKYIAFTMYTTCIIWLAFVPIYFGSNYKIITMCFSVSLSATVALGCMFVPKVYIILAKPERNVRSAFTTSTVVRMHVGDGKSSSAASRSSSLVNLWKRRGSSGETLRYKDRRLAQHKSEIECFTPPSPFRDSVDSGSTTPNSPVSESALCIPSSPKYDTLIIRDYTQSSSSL

Row | SMILES | IC50 [nM]
1 | O=C(/C=C/c1cccc(Cl)c1)N1CCN(c2ncccc2[N+](=O)[O-])CC1 [Example 11.6, 1-[(2E)-3-(3-chlorophenyl)prop-2-enoyl]-4-(3-nitro-pyridin-2-yl)piperazine] | 10
2 | COCC1CN(c2nccnc2C#N)CCN1C(=O)/C=C/c1cccc(Cl)c1 (centres unmarked) [Example 29.1, 3-[4-[(2E)-3-(3-chlorophenyl)prop-2-enoyl]-3-(methoxymethyl)piperazin-1-yl]pyrazine-2-carbonitrile] | 384
3 | CCOC(=O)N1CCN(C(=O)/C=C/c2cccc(Cl)c2)CC1 [Example 11.4, ethyl 4-[(2E)-3-(3-chloro-phenyl)prop-2-enoyl]piperazine-1-carboxylate] | 1110
4 | C[C@@H]1CN(c2ncc(F)cc2C#N)CCN1C(=O)/C=C/c1cccc(OC(F)F)c1 [Example 11.28, 2-((3R)-4-{(2E)-3-[3-(difluoromethoxy)phenyl]prop-2-enoyl}-3-methylpiperazin-1-yl)-5-fluoronicotinonitrile] | 293
5 | C[C@@H]1CN(c2ncccc2C#N)CCN1C(=O)/C=C/c1cccc(Br)c1 [Example 11.22, 2-{(3R)-4-[(2E)-3-(3-bromo-phenyl)prop-2-enoyl]-3-methylpiperazin-1-yl}nicotinonitrile] | 33
